target: CB1 (Mus musculus, UniProt P47746); test: CB1 radioligand displacement assay in mouse brain membranes; type: binding; design: radioligand displacement assay in mouse brain membranes; from tissue; host or cells: mouse brain membranes; details: Table 1; read-out: Ki CB1
Sequence (P47746 whole entry): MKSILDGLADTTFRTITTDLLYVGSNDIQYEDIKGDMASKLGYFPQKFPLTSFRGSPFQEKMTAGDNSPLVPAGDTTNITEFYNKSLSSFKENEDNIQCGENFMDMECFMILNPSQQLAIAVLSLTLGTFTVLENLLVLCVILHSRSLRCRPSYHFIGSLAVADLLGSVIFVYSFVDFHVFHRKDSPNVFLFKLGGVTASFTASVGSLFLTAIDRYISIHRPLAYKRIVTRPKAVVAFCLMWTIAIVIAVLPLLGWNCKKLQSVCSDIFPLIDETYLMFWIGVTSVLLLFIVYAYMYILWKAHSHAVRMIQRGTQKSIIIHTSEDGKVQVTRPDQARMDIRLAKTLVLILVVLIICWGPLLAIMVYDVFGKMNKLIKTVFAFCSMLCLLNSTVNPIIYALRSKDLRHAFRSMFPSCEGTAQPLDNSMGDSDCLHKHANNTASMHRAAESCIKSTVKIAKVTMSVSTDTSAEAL

**Q.** How did the Ki turn out when `CN(C)/C(N)=N/C(=N/S(=O)(=O)c1ccc(Cl)cc1)N1CC(c2ccccc2)C(c2ccc(Cl)cc2)=N1` (racemic) [Compound 44, rac-N-(amino(dimethylamino)methylene)-3-(4-chlorophenyl)-N-((4-chlorophenyl)sulfonyl)-4-phenyl-4,5-dihydro-1H-pyrazole-1-carboximidamide] was run?
**A.** 171 nM

**Q.** With `CC(C)(C)C(N)=NC(=NS(=O)(=O)c1ccc(Cl)cc1)N1CC(c2ccccc2)C(c2ccc(Cl)cc2)=N1` (stereo not shown) [Compound 3] as the molecule, how does the Ki read?
**A.** 7 nM

same assay, conditions: Table 2; read-out: Ki CB1

**Q.** Which Ki does the source give for `N/C(=N/C(=N\S(=O)(=O)c1ccc(Cl)cc1)N1CC(c2ccccc2)C(c2ccc(Cl)cc2)=N1)c1ccc(F)cc1` (single isomer, unassigned) [Compound 10E1] here?
**A.** 6.5 nM

**Q.** Which Ki does the source give for `N/C(=N/C(=N\S(=O)(=O)c1ccc(Cl)cc1)N1CC(c2ccccc2)C(c2ccc(Cl)cc2)=N1)c1ccc(F)cc1` (single isomer, unassigned) [Compound 10E2] here?
**A.** 524 nM

**Q.** With `CC(C)(C)C(N)=NC(=NS(=O)(=O)c1ccc(Cl)cc1)N1C[C@H](c2ccccc2)C(c2ccc(Cl)cc2)=N1` [Compound 3E1] as the molecule, how does the Ki read?
**A.** 36 nM

**Q.** How did the Ki turn out when `CC(C)(C)C(N)=NC(=NS(=O)(=O)c1ccc(Cl)cc1)N1CC(c2ccccc2)C(c2ccc(Cl)cc2)=N1` (stereo not shown) [Compound 3] was run?
**A.** 7 nM

**Q.** `CC(C)C(N)=NC(=NS(=O)(=O)c1ccc(Cl)cc1)N1CC(c2ccccc2)C(c2ccc(Cl)cc2)=N1` (stereo not shown) [Compound 5] was tested. Which Ki did it give?
**A.** 29 nM

**Q.** `O=S(=O)(N=C(N=C1CCCCN1)N1CC(c2ccccc2)C(c2ccc(Cl)cc2)=N1)c1ccc(Cl)cc1` (stereo not shown) [Compound 6] was tested. Which Ki did it give?
**A.** 29 nM

**Q.** `NC(=NC(=NS(=O)(=O)c1ccc(Cl)cc1)N1CC(c2ccccc2)C(c2ccc(Cl)cc2)=N1)C12CC3CC(CC(C3)C1)C2` (stereo not shown) [Compound 7] was tested. Which Ki did it give?
**A.** 15 nM

**Q.** `NC(=NC(=NS(=O)(=O)c1ccc(Cl)cc1)N1CC(c2ccccc2)C(c2ccc(Cl)cc2)=N1)c1ccc([N+](=O)[O-])cc1` (stereo not shown) [Compound 9] was tested. Which Ki did it give?
**A.** 62 nM

**Q.** `NC(=NC(=NS(=O)(=O)c1ccc(Cl)cc1)N1CC(c2ccccc2)C(c2ccc(Cl)cc2)=N1)c1ccc(F)cc1` (stereo not shown) [Compound 10] was tested. Which Ki did it give?
**A.** 7.9 nM

**Q.** Which Ki does the source give for `NC(COc1ccccc1)=NC(=NS(=O)(=O)c1ccc(Cl)cc1)N1CC(c2ccccc2)C(c2ccc(Cl)cc2)=N1` (stereo not shown) [Compound 13] here?
**A.** 72 nM

**Q.** For `NC(=NC(=NS(=O)(=O)c1ccc(Cl)cc1)N1CC(c2ccccc2)C(c2ccc(Cl)cc2)=N1)c1cccc(Br)c1` (stereo not shown) [Compound 14], which Ki is on record?
**A.** 56 nM

**Q.** With `NC(=NC(=NS(=O)(=O)c1ccc(Cl)cc1)N1CC(c2ccccc2)C(c2ccc(Cl)cc2)=N1)c1ccccc1F` (stereo not shown) [Compound 15] as the molecule, how does the Ki read?
**A.** 19 nM

**Q.** How did the Ki turn out when `NC(=NC(=NS(=O)(=O)c1ccc(Cl)cc1)N1CC(c2ccccc2)C(c2ccc(Cl)cc2)=N1)c1cccs1` (stereo not shown) [Compound 16] was run?
**A.** 60 nM

**Q.** `COc1cccc(C(N)=NC(=NS(=O)(=O)c2ccc(Cl)cc2)N2CC(c3ccccc3)C(c3ccc(Cl)cc3)=N2)c1` (stereo not shown) [Compound 17] was tested. Which Ki did it give?
**A.** 86 nM

**Q.** Which Ki does the source give for `NC(=NC(=NS(=O)(=O)c1ccc(Cl)cc1)N1CC(c2ccccc2)C(c2ccc(Cl)cc2)=N1)c1ccc(F)cc1F` (stereo not shown) [Compound 19] here?
**A.** 7.7 nM

**Q.** `NC(=NC(=NS(=O)(=O)c1ccc(Cl)cc1)N1CC(c2ccccc2)C(c2ccc(Cl)cc2)=N1)c1ccc(Br)cc1` (stereo not shown) [Compound 20] was tested. Which Ki did it give?
**A.** 27 nM

**Q.** Which Ki does the source give for `CC(C)SC(N)=NC(=NS(=O)(=O)c1ccc(Cl)cc1)N1CC(c2ccccc2)C(c2ccc(Cl)cc2)=N1` (stereo not shown) [Compound 23] here?
**A.** 166 nM

**Q.** How did the Ki turn out when `NC(=NC(=NS(=O)(=O)c1ccc(Cl)cc1)N1CC(c2ccccc2)C(c2ccc(Cl)cc2)=N1)SCc1ccccc1` (stereo not shown) [Compound 24] was run?
**A.** 127 nM

**Q.** `NC(=NC(=NS(=O)(=O)c1ccc(Cl)cc1)N1CC(c2ccccc2)C(c2ccc(Cl)cc2)=N1)SCCc1ccccc1` (stereo not shown) [Compound 25] was tested. Which Ki did it give?
**A.** 287 nM

**Q.** For `NC(=NC(=NS(=O)(=O)c1ccc(Cl)cc1)N1CC(c2ccccc2)C(c2ccc(Cl)cc2)=N1)SCCCc1ccccc1` (stereo not shown) [Compound 26], which Ki is on record?
**A.** 190 nM

**Q.** Which Ki does the source give for `CC(N)=NC(=NS(=O)(=O)c1ccc(F)cc1)N1CC(c2ccccc2)C(c2ccc(Cl)cc2)=N1` (stereo not shown) [Compound 27] here?
**A.** 60 nM

**Q.** Which Ki does the source give for `CC(N)=NC(=NS(=O)(=O)c1ccc(Br)cc1)N1CC(c2ccccc2)C(c2ccc(Cl)cc2)=N1` (stereo not shown) [Compound 28] here?
**A.** 18 nM

**Q.** `CC(N)=NC(=NS(=O)(=O)c1ccc(I)cc1)N1CC(c2ccccc2)C(c2ccc(Cl)cc2)=N1` (stereo not shown) [Compound 29] was tested. Which Ki did it give?
**A.** 10 nM

From patent US20190352268A1, “CANNABINOID RECEPTOR MEDIATING COMPOUNDS” (The USA, as represented by the Secretary, Department of …, priority 2015, published 2019)
